Results published in the NIST ThermoML archive (doi:10.1016/j.jct.2016.01.003).
± gives the expanded uncertainty stated by the source.

Legend:
[1] = Molar enthalpy of transition or fusion; conditions: Crystal; DSC
[2] = Crystal

Molar enthalpy of transition or fusion [1]: 6.96 ± 0.237 kcal/mol
mass density ([2]; 298.15 K, 101.33 kPa, flotation method): 1397 ± 2 kg/m3
Normal melting temperature ([2]; DTA): 192.90 ± 1.1 °C
Compound: O=C1c2cccc(Cl)c2C(=O)N1c1ccccc1 [3-chloro-N-phenylphthalimide]
